For one data set, the system named is VCAM-1. The data set is described as follows: In Vitro VCAM-1 Assay (ELISA of VCAM-1 on TNF-α stimulated endothelial cells). The format is cell-based. The following applies: Endothelial cell; primary human aortic (HAEC) or pulmonary (HPAEC) endothelial cells, TNF-α (1 ng/ml), approximately 16 hours. The protocol:
Cell Culture and compound dosing: Cultured primary human aortic (HAEC) or pulmonary (HPAEC) endothelial cells were obtained from Clonetics, Inc., and were used below passage 9. Cells were seeded in 96 well plates such that they would reach 90-95% confluency by the following day. On the following day the cells were stimulated with TNF-α (1 ng/ml) in the presence or absence of compounds dissolved in DMSO such that the final concentration of DMSO is 0.25% or less. To establish a dose curve for each compound, four concentrations in 2- to 5-fold increments were used. Cells were exposed to TNF-α and compounds for approximately 16 hours. The next day the cells were examined under microscope to score for visual signs of toxicity or cell stress.
Following 16 hr exposure to TNF-α and compound the media was discarded and the cells were washed once with Hanks Balanced Salt Solution (HBSS)/Phosphate buffered saline (PBS) (1:1). Primary antibodies against VCAM-1 (0.25 μg/ml in HBSS/PBS+5% FBS) were added and incubated for 30-60 minutes at 37° C. Cells were washed with HBSS/PBS three times, and secondary antibody Horse Radish Peroxidase (HRP)-conjugated goat anti-mouse IgG (1:500 in HBSS/PBS+5% FBS) were added and incubated for 30 minutes at 37° C. Cells were washed with HBSS/PBS four time and TMB substrate were added and incubated at room temperature in the dark until there was adequate development of blue color. The length of time of incubation was typically 5-15 minutes. 2N sulfuric acid was added to stop the color development and the data was collected by reading the absorbance on a BioRad ELISA plate reader at OD 450 nm. The results are expressed as IC50 values (the concentration (micromolar) of compound required to inhibit 50% of the maximal response of the control sample stimulated by TNF-α only).
(In general: In an ELISA, binding on a coated surface is turned into a signal by an enzyme label.)

Some results are limits rather than exact numbers.

Regarding `C=C(C(=O)c1ccc(NC(=O)c2ccno2)cc1)c1cc(-c2cccs2)ccc1OC` [Example 27, Isoxazole-5-carboxylic acid {4-[2-(2-methoxy-5-thien-2-yl-phenyl)-acryloyl]-phenyl}-amide], the melting point (in general, the temperature, or range, at which the solid turns liquid) lay in the range of 132.5 to 133.5 °C. Further, the IC50 (commonly the concentration that inhibits the measured activity by half) in the data set with VCAM-1 is < 1000 nM.
The like results for `C=C(C(=O)c1ccc(NC(=O)c2cccn2C)cc1)c1cc(-c2cccs2)ccc1OC` [Example 28, 1-Methyl-1H-pyrrole-2-carboxylic acid {4-[2-(2-methoxy-5-thien-2-yl-phenyl)-acryloyl]-phenyl}-amide] were, in that order, 165 to 168 °C and < 1000 nM.
The like results for `C=C(C(=O)c1c(C)cccc1Cl)c1ccc(C(=O)O)cc1-c1cccs1` [Example 32, 4-[1-(2-Chloro-6-methyl-benzoyl)-vinyl]-3-thien-2-yl-benzoic acid] were, in that order, 88 °C (dec.) and < 1000 nM.
`C=C(C(=O)c1c(C)cccc1C)c1ccc(C(=O)O)cc1-c1cccs1` [Example 33, 4-[1-(2,6-Dimethyl-benzoyl)-vinyl]-3-thien-2-yl-benzoic acid] registered a melting point of 186.5 to 188 °C. In addition, the IC50 with VCAM-1 was < 3000 nM.
In turn, `C=C(C(=O)c1c(OC)ccc(-c2cccs2)c1OC)c1cc(C(C)(C)C)c(O)c(C(C)(C)C)c1` [Example 34, 2-(3,5-Di-tert-butyl-4-hydroxy-phenyl)-1-(2,6-dimethoxy-3-thien-2-yl-phenyl)-propenone] displayed a melting point of 130 to 132.5 °C. Moreover, the IC50 in the data set on VCAM-1 is > 10000 nM.
`C=C(C(=O)c1c(OC)ccc(-c2cccs2)c1OC)c1ccc(OC(C)(C)C(=O)O)cc1` [Example 35, 2-{4-[1-(2,6-Dimethoxy-3-thien-2-yl-benzoyl)-vinyl]-phenoxy}-2-methyl-propionic acid]: the melting point was 138 °C (dec.). Also, the IC50 in the data set on VCAM-1 was < 3000 nM.
The like results for `C=C(C(=O)c1c(OC)cccc1OC)c1ccc(C(=O)O)cc1-c1cccs1` [Example 36, 4-[1-(2,6-Dimethoxy-benzoyl)-vinyl]-3-thien-2-yl-benzoic acid] were, in that order, 192 to 195 °C and < 3000 nM.
The molecule `C=C(C(=O)c1c(OC)ccc(-c2cccs2)c1OC)c1ccc(C(F)(F)F)cc1` [Example 40, 1-(2,6-Dimethoxy-3-thien-2-yl-phenyl)-2-(4-trifluoromethyl-phenyl)-propenone] came in with a melting point of 102 to 105 °C. For the same molecule, in the data set with VCAM-1, the IC50 was < 1000 nM.
In turn, `C=C(C(=O)c1c(OC)ccc(-c2cccs2)c1OC)c1ccc([N+](=O)[O-])cc1` [Example 41, 1-(2,6-Dimethoxy-3-thien-2-yl-phenyl)-2-(4-nitrophenyl)-propenone] returned a melting point of 114 to 118 °C. The 50% inhibitory concentration (IC50) in the data set on VCAM-1 is < 1000 nM.
For `C=C(C(=O)c1c(OC)ccc(-c2cccs2)c1OC)c1c(Cl)cccc1Cl` [Example 42, 2-(2,6-Dichloro-phenyl)-1-(2,6-dimethoxy-3-thien-2-yl-phenyl)-propenone] the same measures were 152 to 154 °C and < 1000 nM.
The like results for `C=C(C(=O)c1c(OC)cccc1OC)c1ccccc1-c1cccs1` [Example 43, 1-(2,6-Dimethoxy-phenyl)-2-(2-thien-2-yl-phenyl)-propenone] were, in that order, 70 to 73 °C and < 3000 nM.
For `C=C(C(=O)c1c(OC)ccc(-c2cccs2)c1OC)c1cccc(OC(C)(C)C(=O)O)c1` [Example 44, 2-{3-[1-(2,6-Dimethoxy-3-thien-2-yl-benzoyl)-vinyl]-phenoxy}-2-methyl-propionic acid] the same measures were 79 to 94 °C and < 3000 nM.
As to `C=C(C(=O)c1c(OC)ccc(-c2cc3ccccc3s2)c1OC)c1cccc(OC(C)(C)C(=O)O)c1` [Example 45, 2-{3-[1-(3-Benzo[b]thien-2-yl-2,6-dimethoxy-benzoyl)-vinyl]-phenoxy}-2-methyl-propionic acid], the melting point was in the range of 135 to 137 °C. Moreover, the IC50 in the data set with VCAM-1 was < 1000 nM.
For `C=C(C(=O)c1cc(-c2cc3ccccc3s2)c(OC)cc1OC)c1ccc(OC)cc1` [Example 46, 1-(5-Benzo[b]thien-2-yl-2,4-dimethoxy-phenyl)-2-(4-methoxy-phenyl)-propenone] the same measures were 166 to 168 °C and < 3000 nM.
The like results for `C=C(C(=O)c1cc(-c2cc3ccccc3s2)c(OC)cc1OC)c1ccc(F)cc1` [Example 47, 1-(5-Benzo[b]thien-2-yl-2,4-dimethoxy-phenyl)-2-(4-fluoro-phenyl)-propenone] were, in that order, 150 to 152 °C and < 3000 nM.
For the molecule `C=C(C(=O)c1ccc(C(=O)OC)cc1)c1cc(OC)c(OC)c(-c2cccs2)c1` [Example 48, 4-[2-(3,4-Dimethoxy-5-thien-2-yl-phenyl)-acryloyl]-benzoic acid methyl ester], the melting point is 102 to 103 °C. Moreover, in the data set with VCAM-1, the IC50 is < 10000 nM.
For `C=C(C(=O)c1ccc(C(=O)O)cc1)c1cc(OC)c(OC)c(-c2cccs2)c1` [Example 49, 4-[2-(3,4-Dimethoxy-5-thien-2-yl-phenyl)-acryloyl]-benzoic acid] the same measures were 156 to 157 °C and < 6000 nM.
The like results for `C=C(C(=O)c1ccc(C(=O)NCCN2CCOCC2)cc1)c1cc(OC)c(OC)c(-c2cccs2)c1` [Example 50, 4-[2-(3,4-Dimethoxy-5-thien-2-yl-phenyl)-acryloyl]-N-(2-morpholin-4-yl-ethyl)-benzamide] were, in that order, 84 to 87 °C and < 3000 nM.
Turning to `C=C(C(=O)c1ccc(F)cc1)c1cc(-c2cc3ccccc3s2)c(OC)cc1OC` [Example 51, 2-(5-Benzo[b]thien-2-yl-2,4-dimethoxy-phenyl)-1-(4-fluoro-phenyl)-propenone], the melting point was in the range of 142 to 144 °C. Moreover, the IC50 with VCAM-1 was < 3000 nM.
Turning to `C=C(C(=O)c1cc(-c2cccs2)ccc1OC)c1ccc(C#N)cc1` [Example 53, 4-[1-(2-Methoxy-5-thien-2-yl-benzoyl)-vinyl]-benzonitrile], the melting point was in the range of 86 to 88 °C. Moreover, the 50% inhibitory concentration (IC50) in the data set with VCAM-1 is < 3000 nM.
The like results for `C=C(C(=O)c1ccc(C(=O)O)cc1)c1cc(-c2cccs2)c(OC)cc1OC` [Example 55, 4-[2-(2,4-Dimethoxy-5-thien-2-yl-phenyl)-acryloyl]-benzoic acid] were, in that order, 196 to 198 °C and < 3000 nM.
For `C=C(C(=O)c1cccc(C(=O)O)c1)c1cc(-c2cccs2)ccc1OC` [Example 56, 3-[2-(2-Methoxy-5-thien-2-yl-phenyl)-acryloyl]-benzoic acid] the same measures were 186 to 188 °C and < 3000 nM.
For `C=C(C(=O)c1ccc(C(C)(C)C)cc1)c1cc(-c2cccs2)ccc1OC` [Example 57, 1-(4-tert-Butyl-phenyl)-2-(2-methoxy-5-thien-2-yl-phenyl)-propenone] the same measures were 130 to 132 °C and < 3000 nM.
The molecule `C=C(C(=O)c1ccc(C(F)(F)F)cc1)c1cc(-c2cccs2)ccc1OC` [Example 58, 2-(2-Methoxy-5-thien-2-yl-phenyl)-1-(4-trifluoromethyl-phenyl)-propenone] displayed a melting point of 131 to 133 °C. The IC50 in the data set on VCAM-1 was < 3000 nM.
The like results for `C=C(C(=O)c1ccc(C(=O)O)cc1)c1cc(-c2cccs2)ccc1OCC(=O)N1CCOCC1` [Example 60] were, in that order, 206 to 207 °C and > 10000 nM.
